How the values were obtained:
[1] = test system: planktonic and biofilm-associated Listeria monocytogenes and Salmonella typhimurium; conditions: combined with streptomycin; cited from earlier work
[2] = test system: biofilms of K. pneumoniae; conditions: cited from earlier work
[3] = test system: Pseudomonas aeruginosa, Staphylococcus aureus and Candida albicans; assay: Antimicrobial efficacy of liposome-encapsulated silver and tea tree oil; assay type: cell-based; conditions: singly and in combination, in a controlled release liposomal carrier system
Description: The aspects, advantages and/or other features of example embodiments of the present disclosure will become apparent to those skilled in the art, in view of the present detailed description. It should be apparent to those skilled in the art that the described embodiments of the present disclosure provided herein are merely exemplary and illustrative and not limiting. Numerous embodiments of modifications thereof are contemplated as falling within the scope of the present disclosure and equivalents thereto. Unless otherwise noted, technical terms are used according to conventional usage. Any publications mentioned in this specification are indicative of the level of those skilled in the art to which the invention pertains and are incorporated by reference in their entirety. […]

In the case of `COc1ccc2cc3[n+](cc2c1OC)CCc1cc2c(cc1-3)OCO2` [berberine], the interaction with streptomycin [1] is given as “synergistic effect”.

In the case of `O=CC=Cc1ccccc1` [cinnamaldehyde], the interaction with streptomycin [1] is given as “synergistic effect”.

In the case of `O=C(O)c1cn(C2CC2)c2cc(N3CCNCC3)c(F)cc2c1=O` [ciprofloxacin], the inhibition/eradication of biofilms [2] is given as “inhibit/eradicate biofilms”.

In the case of `C=CCc1ccc(O)c(OC)c1` [eugenol], the interaction with streptomycin [1] is listed as “synergistic effect”.

For `Cc1ccc(C(C)C)c(O)c1` [thymol], the interaction with streptomycin [1] is given as “synergistic effect”.

For silver, the “antimicrobial efficacy and effective concentration required” value [3] was “can improve their antimicrobial efficacy as well as reduce the effective concentration required”.

Reference: patent publication US20200397711A1, “MICROPARTICLE COMPOSITIONS FOR TREATMENT OF INFECTION OR DISEASE, METHODS OF MAKING THE SAME, AND METHODS OF TREATING SUBJECTS WITH MICROPARTICLE COMPOSITIONS” (priority 2019, published 2020)
